Assay results from patent US20150141485A1, “PROGNOSIS AND TREATMENT OF LUNG CANCER USING miRNA-135b” (NATIONAL CHENG KUNG UNIVERSITY, priority 2013, published 2015).

What was measured:
[1] = tested on: miR-135b expression; experiment: Real-time RT-PCR of miR-135b after DNA demethylation; assay type: cell-based; settings: cancer cells treated 4 days
Protocol: Cells were treated with different doses of 5-aza-2′-CdR (5′-aza) for 4 days, and total RNA was harvested for real time RT-PCR. Data are expressed as the mean±s.d.
(§1) Cells were seeded at concentration of 1×10^5 for treatment with 5-aza-2′-CdR (R&D Systems INC., MN, USA) for 96 hours. For TNF-α (PeproTech, Rocky Hill. N.J.) stimulation, 1×10^6 cells were seeded for 24 hours and treated with different amounts of TNF-α for 6 hours.
(§2) Total RNA was isolated using TRIZOL reagent (Invitrogen, Carisbad, Calif.) according to the standard protocol. The mature miR-135b and endogenous control U6B were analyzed using TaqMan Micro RNA Assay (Applied Biosystems, Foster City, Calif.). Briefly, total RNA was reverse-transcribed via SuperScipt-III Reverse Transcriptase (Invitrogen, Carlsbad, Calif.). The cDNA was amplied with TaqMan 2× Universal Master Mix (Applied Biosystems), and miRNA-specific real-time PCR was performed using an ABI 7500 real-time PCR system.

[2] = tested on: LEMD1 mRNA; experiment: LEMD1 mRNA expression after DNA demethylation; assay type: cell-based; settings: lung cancer cell lines
Protocol: as §1

[3] = tested on: H1299 cells; experiment: Real-time RT-PCR of miR-135b; assay type: cell-based; settings: single treatment
Protocol: Cells were treated with or without 5-aza-2′-CdR for 4 days and re-seeded for TNF-α stimulation for 6 hours. Total RNA was harvested, and miR-135b expression was analyzed. Mean±s.d. is shown, *P<0.05; **P<0.005 by Student's t-test.
as §1, §2

[4] = tested on: CL1-5-F4 cells; experiment: Real-time RT-PCR of miR-135b; assay type: cell-based, human; settings: 6 hours
Protocol: CL1-5-F4 cells were treated with different concentrations of TNF-α with or without BAY-117082 (5 or 10 μM) for 6 hours. Total RNA was harvested, and miR-135b expression was analyzed and analysis by real-time RT-PCR. Mean±s.d. is shown, *P<0.05; **P<0.005 by Student's t-test.
as §1, §2

[5] = tested on: NF-κB binding site within the miR-135b promoter; experiment: Chromatin immunoprecipitation (ChIP) with anti-p65; assay type: cell-based; settings: 6 hours stimulation
Protocol: The cells were treated with indicated amounts of 5-aza-2′-CdR (upper panel) for 4 days or TNF-α (lower panel) for 6 hours before being subjected to chromatin immunoprecipitation (ChIP) with anti-p65 antibody and specific primers.
CL1-0 and H1299 cells were fixed with 1% formaldehyde and blocked by 125 mM glycine. The cells were resuspended in cell lysis buffer (5 mM HEPES, 85 mM KCl, 0.5% Triton X-100, 1 mM DTT, 1 mM PMSF, pH 8.0), followed by nucleic lysis buffer (50 mMTris-HCl, 10 mM EDTA, 1% SDS, 1 mM DTT, and protease inhibitor (Roche Applied Science, Mannheim, Germany)). The cell lysate was sonicated and clarified by centrifugation. The supernatant was diluted with protein G beads at 4° C. to pre-clear the solution Immunoprecipitation with anti-RelA (Abcam, Cambridge, UK) was performed at 4° C. overnight. DNA-protein complexes were than incubated with protein G agarose beads at 4° C. with constant rotation for 2 hours. Following immunoprecipitation, the beads were washed with a low-salt wash buffer, a high-salt wash buffer, a LiCl wash buffer, and, finally, a TE buffer. The immunoprecipitated complexes were eluted in a buffer containing 10 mM Tris pH 8.0, 300 mM NaCl. 5 mM EDTA, and 0.5% SDS at room temperature. The samples were then treated with proteinase K for 1 hour, followed by RNAse A. Next, the DNA was purified by phenol/chloroform extraction. […]

[6] = tested on: CL1-5-F4 cells; experiment: Transwell invasion assay; assay type: cell-based, human; settings: CL1-5-F4 cells stably expressing sponge vs control sponge
Protocol: CL1-5-F4 and Hop-62 cells were transfected with scramble (NC) of miR-135b-specific antagomir (Antago-135b) for 48 hours and the subjected to migration assays (FIG. 2d) and invasion assays (FIG. 2e) as described above. *P<0.05;**P<0.005 by Student's t-test.
CL1-5-F4 cells transfected with plasmids expressing either control or miR-135b sponges were analyzed using in vitro invasion assay. The average number of invading cells obtained in the transwell invasion assay is presented (n=3).
Transwell chambers ([…], BD Falcon, Franklin Lakes, N.J.) were coated with the appropriate amount of Matrigel (BD Biosciences, San Jose, Calif.). Next, 2.5×10^4 cells were suspended in NuSerum-containing media (Gibco BRL, Grand Island N.Y., USA), seeded in the chamber and cultured, Cells that invaded the chamber from top to bottom were fixed with methanol and stained with a solution of propidium iodine (Sigma-Aldrich, St. Louis, Mo.). The propidiumiodine-positive signal was quantified using Analytical Imaging Station software package. Each sample was assayed in triplicate.

[7] = tested on: CL1-5-F4 cells; experiment: Lung metastasis after intravenous injection of sponge-expressing cells; assay type: in vivo; settings: SCID mice, i.v. sponge-producing CL1-5-F4 cells, 6 weeks, P=0.0126
Text: CL-5-F4 cells stably expressing control sponge or miR-135b sponge were intravenously injected into SCID mice (n=8). Representative pictures of murine whole lung (left) and H&E staining of lung sections (right) are presented.
Lung tumor nests in each group were examined and counted using a microscope (n=8); Mean±s.e.m. is shown,*P<0.05 by Student's t-test.
Animals were housed in a specific-pathgen-free environment in the animal facility of the Institute of Biomedical Sciences, Academia Sinica. All experimental procedures were in compliance with the Academia Sinica IACUC and Council of Agriculture Guidebook for the Care and Use of Laboratory Animals. For intravenous injections of the tumor cells, 1×10^6 cells were suspended in 0.1 mL of phosphate-buffered saline (PBS) and injected into lateral tail vein of SCID mice (10 mice per group). […] For the subcutaneous tumor assay, 1×10^6 CL1-0 cells or 2×10^5 H441 cells were subcutaneously injected in 0.1 mL of PBS into male nude mice (n=8 per group) and allowed to grow for 35 days to reach a volume of 50-200 mm^3 Control antagomir (Scramble) or anti-miR-135b antagomir (antago-135) was intravenously injected at a concentration of 10 μM in 0.1 mL of PBS 4 days after the cells were implanted. An example of a miR-135b antagomir is 5′mU(*)mC(*)mAmCmAmUmAmG-mGmAmAmUmGmAmAmAmAmGmCmC(*)mA(*)mU(*)mA(*)(3′-Ch1)3′ (SEQ ID NO:8). […]

Nc1ncn([C@H]2C[C@H](O)[C@@H](CO)O2)c(=O)n1 [5-aza-2′CdR]
miR-135b expression levels [1]: restored
LEMD1 mRNA expression [2]: restored LEND1 mRNA expression in a dose-dependent manner

TNF-α
miR-135b expression [3]: induced miR-135b expression was also observed
miR-135b expression [4]: induced miR-135b expression was also observed
association of NF-κB with the miR-135b promoter [5]: confirmed

Cc1ccc(S(=O)(=O)/C=C/C#N)cc1 [BAY-117082]
TNF-α-stimulated miR-135b expression ([4]; 5 or 10 μM): negated

B1: miR-135b sponge: miR-135-specific sponge carrying seven repeats of the miR-135b binding site (SEQ ID NO:12) (nucleic acid)
DNA: GTCGACTCACATAGGAACTTAAGCCATAATGCTCACATAGGAACTTAAGCCATAATGCTCACATAGGAACTTAAGCCATAATGCTCACATAGGAACTTAAGCCATAATGCTCACATAGGAACTTAAGCCATAATGCTCACATAGGAACTTAAGCCATAATGCTCACATAGGAACTTAAGCCATAATGTCGAC
invasiveness in transwell invasion assay [6]: diminished the invasive
number of tumor nodules developed in the mouse lungs [7]: significantly reduced
